Reference: patent publication US20230348400A1, “ORGANIC COMPOUND, LIGHT-EMITTING DEVICE, AND LIGHT-EMITTING APPARATUS” (SEMICONDUCTOR ENERGY LABORATORY CO., LTD., priority 2022, published 2023)
≈ marks a conversion by molar mass, not a printed value.

Test: Solubility test in water (stepwise addition of water, ultrasonic waves, visual observation of precipitate)
Type: physicochemical
Settings: for solubility at 1 min: from solid; for solubility in water as a fraction of the solubility of 2,7hpp2SF in water: one atmosphere, RT, relative to comparative 2,7hpp2SF
Protocol: In this example, the solubility of the organic compounds that can be used in the display apparatus of one embodiment of the present invention is described. Note that the solubility test was conducted at a pressure of one atmosphere at room temperature (RT).
(§1) The mixture was irradiated with ultrasonic waves for 1 minute. The mixture was visually observed, and a white powdered precipitate was observed. This means part of 2′,7′tBu-2,7hpp2SF remained undissolved. […] This process was repeated until the white powdered precipitate was not visually observed any more. Thus, the solubility was examined.
The mixture was irradiated with ultrasonic waves for 1 minute. Whether part of the mixture remained undissolved was visually confirmed, and a white powdered precipitate was observed. […] This process was repeated.
as §1, with “was” for “was visually”, “2,7hpp2SF” for “2′,7′tBu-2,7hpp2SF”

solubility at 1 min | solubility in water as a fraction of the solubility of 2,7hpp2SF in water | weight that is dissolved in 1.0 mL of water (pressure of one atmosphere, room temperature (RT)) | SMILES
330 to 390 µg/mL (≈ 559 to 660 µM) | – | – | c1ccc2c(c1)-c1ccccc1C21c2cc(N3CCCN4CCCN=C43)ccc2-c2ccc(N3CCCN4CCCN=C43)cc21 [2,7hpp2SF, 1,1′-(9,9′-spirobi[9H-fluorene]-2,7-diyl)bis(1,3,4,6,7,8-hexahydro-2H-pyrimido[1,2-a]pyrimidine), reference compound]
< 2.3 µg/mL | less than or equal to 1/140 | less than 0.0023 mg | CC(C)(C)c1ccc2c(c1)C1(c3ccccc3-c3ccc(N4CCCN5CCCN=C54)cc31)c1cc(C(C)(C)C)ccc1-2 [Structural Formula (101), 1-(2′,7′-di-tert-butyl-9,9′-spirobi[9H-fluoren]-2-yl)-1,3,4,6,7,8-hexahydro-2H-pyrimido[1,2-a]pyrimidine]
58 to 61 µg/mL | less than or equal to ⅕ | – | CC(C)(C)c1ccc2c(c1)C1(c3cc(N4CCCN5CCCN=C54)ccc3-c3ccc(N4CCCN5CCCN=C54)cc31)c1cc(C(C)(C)C)ccc1-2 [Structural Formula (100), 1,1′-(2′,7′-di-tert-butyl-9,9′-spirobi[9H-fluorene]-2,7-diyl)bis(1,3,4,6,7,8-hexahydro-2H-pyrimido[1,2-a]pyrimidine)]
